Measured values: US6506580B1, “Splice variants for human 5-HT4 serotonin receptor and their applications, in particular for screening” (Institut National de la Sante et de la Recherche Medicale …, priority 1997, dated 2003)

How the values were obtained:
Type in all cases: cell-based
receptor 5-HT4(c) = receptor 5-HT4(c) (Homo sapiens, UniProt Q13639); assay: cAMP formation in transiently transfected COS-7 cells; design: The entire coding region of the cDNAs of 5-HT4(a), 5-HT4(b), 5-HT4(c) and 5-T4(d) was subcloned; expressed in transfected cells; host or cells: COS-7 cells, transient, pRC/CMV vector; cDNA amplified from human brain and ileum RNA; conditions: for decrease of the basal cAMP values: 1 μM
Experimental: (§1) The entire coding region of the cDNAs of 5-HT4(a), 5-HT4(b), 5-HT4(c) and 5-T4(d) was subcloned into a mammalian expression vector pRC/CMV (Invitrogen, Carlsbad, Calif.). The transfections were carried out using polyethyleneimine (PEI) as described in Boussif et al. (1995). The cells were transfected using a mixture of DNA and of PEI in a ratio of 20 μmol of PEI/mg of DNA in 0.9% NaCl. For the radioligand binding assays, the COS-7 cells were seeded into culture flasks of 1.5×10^4 mm^2 one day before the transfection, at a density of 1×10^7 cells/flask, incubated for six hours with plasmid DNA (150 μg/flask) and collected 48 hours after transfection. For the measurement of cAMP formation, the COS-7 cells were seeded onto twelve-well plates one day before transfection, at a density of 5×10^5 cells/well, incubated for six hours with plasmid DNA (4 to 8 μg/well according to the experiments) and assayed 24 hours after the transfection. The cells transfected with the receptor 5-HT4 cDNA constructs were compared with the “blank”-transfected cells, which were exposed to the unmodified pRC/CMV plasmid.
(§2) To measure intracellular cAMP accumulation, the transiently transfected COS-7 cells were incubated, 24 hours after transfection, in Dulbecco's modified Eagle medium (DMEM) containing 5 mM theophylline, 10 mM HEPES and 10 μM pargyline for 15 minutes at 37° C., in the presence of 5% CO2. […] The reaction was stopped by aspiration of the medium and addition of 500 μl of ice-cold ethanol. After one hour at room temperature, the cells were scraped, and everything was collected and freeze-dried. The pellet was resuspended in 350 μl of PBS and centrifuged for 5 min at 300 g. The cAMP was quantified in the supernatant using a radioimmunological assay (E.R.I.A. assay kit from Pasteur Diagnostics 79830). Student's t tests were carried out using the program Quick TEst.
ML10375 is capable of reducing the cAMP levels in the cells expressing the 5-HT4(c) and 5-HT4(d) isoforms in the absence of any stimulation of the receptor by 5-HT4 agonists. To test the hypothesis that ML10375 may constitute a reverse agonist for the human receptor 5-HT4, the 5-HT4(c) isoform was overexpressed in COS-7 cells in order to increase the frequency of the spontaneously active state of the receptor. The COS-7 cells were transfected with 4 to 8 μg of plasmid DNA per well in order to obtain an increase in the expression levels of the receptor 5-HT4(c). […] (FIG. 6B).

receptor 5-HT4(a) = target: T1, receptor 5-HT4(a) (Homo sapiens, UniProt Q13639); assay: as above; conditions: COS-7, 1 μM, no agonist
T1 construct: The entire coding region of the cDNAs of 5-HT4(a), 5-HT4(b), 5-HT4(c) and 5-T4(d) was subcloned; expressed in transfected cells; host or cells: COS-7 cells, transient, pRC/CMV vector
Experimental: as §1, §2

receptor 5-HT4(b) = target: T2, receptor 5-HT4(b) (Homo sapiens, UniProt Q13639); assay: as above; conditions: COS-7, 1 μM, no agonist
T2 construct: The entire coding region of the cDNAs of 5-HT4(a), 5-HT4(b), 5-HT4(c) and 5-T4(d) was subcloned; expressed in transfected cells; host or cells: COS-7 cells, transient, pRC/CMV vector; cDNA amplified from human brain and ileum RNA
Experimental: as §1, §2

[1] = tested on: “blank”-transfected COS-7 cells; assay: cAMP formation in control COS-7 cells; conditions: 1 μM
Experimental: as §1, §2

receptor 5-HT4(d) = receptor 5-HT4(d) (Homo sapiens, UniProt Q13639); assay: cAMP formation in transiently transfected COS-7 cells; design: The entire coding region of the cDNAs of 5-HT4(a), 5-HT4(b), 5-HT4(c) and 5-T4(d) was subcloned; expressed in transfected cells; host or cells: COS-7 cells, transient, pRC/CMV vector; cDNA amplified from human brain and ileum RNA; conditions: COS-7, 1 μM, no agonist
Experimental: The entire coding region of the cDNAs of 5-HT4(a), 5-HT4(b), 5-HT4(c) and 5-T4(d) was subcloned into a mammalian expression vector pRC/CMV (Invitrogen, Carlsbad, Calif.). The transfections were carried out using polyethyleneimine (PEI) as described in Boussif et al. (1995). The cells were transfected using a mixture of DNA and of PEI in a ratio of 20 μmol of PEI/mg of DNA in 0.9% NaCl. For the radioligand binding assays, the COS-7 cells were seeded into culture flasks of 1.5×10^4 mm^2 one day before the transfection, at a density of 1×10^7 cells/flask, incubated for six hours with plasmid DNA (150 μg/flask) and collected 48 hours after transfection. For the measurement of cAMP formation, the COS-7 cells were seeded onto twelve-well plates one day before transfection, at a density of 5×10^5 cells/well, incubated for six hours with plasmid DNA (4 to 8 μg/well according to the experiments) and assayed 24 hours after the transfection. […]
To measure intracellular cAMP accumulation, the transiently transfected COS-7 cells were incubated, 24 hours after transfection, in Dulbecco's modified Eagle medium (DMEM) containing 5 mM theophylline, 10 mM HEPES and 10 μM pargyline for 15 minutes at 37° C., in the presence of 5% CO2. […] The cAMP was quantified in the supernatant using a radioimmunological assay (E.R.I.A. assay kit from Pasteur Diagnostics 79830). […]

receptor 5-HT4(c), sequence (Q13639 1-380 isoform Q13639-4): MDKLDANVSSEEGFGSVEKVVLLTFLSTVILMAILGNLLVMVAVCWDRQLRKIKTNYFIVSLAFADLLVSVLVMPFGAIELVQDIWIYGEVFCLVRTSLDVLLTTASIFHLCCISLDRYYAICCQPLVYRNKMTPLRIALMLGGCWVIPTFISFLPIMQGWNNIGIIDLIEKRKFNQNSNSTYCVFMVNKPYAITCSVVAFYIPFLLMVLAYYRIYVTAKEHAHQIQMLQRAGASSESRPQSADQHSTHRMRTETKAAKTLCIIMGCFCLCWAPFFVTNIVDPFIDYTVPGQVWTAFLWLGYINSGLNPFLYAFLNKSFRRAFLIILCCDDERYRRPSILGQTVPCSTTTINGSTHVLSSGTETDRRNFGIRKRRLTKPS
receptor 5-HT4(d), sequence (Q13639 1-360 isoform Q13639-3): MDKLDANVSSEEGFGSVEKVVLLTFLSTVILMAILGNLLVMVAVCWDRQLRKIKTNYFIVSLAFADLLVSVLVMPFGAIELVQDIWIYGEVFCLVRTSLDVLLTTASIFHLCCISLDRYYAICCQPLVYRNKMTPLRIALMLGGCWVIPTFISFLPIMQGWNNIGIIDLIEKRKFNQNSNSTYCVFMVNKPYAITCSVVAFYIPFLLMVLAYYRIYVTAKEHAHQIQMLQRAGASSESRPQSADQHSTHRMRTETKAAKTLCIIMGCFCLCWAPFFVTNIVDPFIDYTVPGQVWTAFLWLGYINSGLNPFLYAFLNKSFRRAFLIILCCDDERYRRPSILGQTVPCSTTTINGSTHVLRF
T2 sequence (Q13639 whole entry): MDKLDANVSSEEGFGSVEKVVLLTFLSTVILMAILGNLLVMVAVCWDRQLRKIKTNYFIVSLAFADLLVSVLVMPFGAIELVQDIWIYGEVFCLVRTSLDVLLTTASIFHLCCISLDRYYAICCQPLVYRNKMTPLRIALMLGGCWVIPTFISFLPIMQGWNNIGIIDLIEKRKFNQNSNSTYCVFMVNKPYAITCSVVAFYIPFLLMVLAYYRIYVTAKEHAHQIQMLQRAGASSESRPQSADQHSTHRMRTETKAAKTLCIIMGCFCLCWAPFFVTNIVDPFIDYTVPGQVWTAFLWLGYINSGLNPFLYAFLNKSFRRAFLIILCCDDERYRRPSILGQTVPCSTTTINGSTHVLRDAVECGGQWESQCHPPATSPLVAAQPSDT
T1 sequence (Q13639 1-387 isoform Q13639-2): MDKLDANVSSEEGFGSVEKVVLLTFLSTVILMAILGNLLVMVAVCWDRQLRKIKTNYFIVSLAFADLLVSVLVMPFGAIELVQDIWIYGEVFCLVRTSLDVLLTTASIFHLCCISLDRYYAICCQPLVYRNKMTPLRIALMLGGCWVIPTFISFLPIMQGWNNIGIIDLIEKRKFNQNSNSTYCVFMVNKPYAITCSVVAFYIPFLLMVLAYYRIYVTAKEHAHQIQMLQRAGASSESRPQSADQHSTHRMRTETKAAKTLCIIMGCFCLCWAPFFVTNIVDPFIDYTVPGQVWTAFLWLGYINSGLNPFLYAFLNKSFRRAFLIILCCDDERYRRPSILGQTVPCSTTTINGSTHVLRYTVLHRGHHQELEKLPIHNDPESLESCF

`COc1cc(N)c(Cl)cc1C(=O)OCCN1C[C@H](C)C[C@H](C)C1` [ML10375, 2-(cis-3,5-dimethyl-piperidino)ethyl 4-amino-5-chloro-2-methoxybenzoate] was tested, and the “antagonism of the stimulatory effect of 5-HT (1 μM) on the basal cAMP” value (receptor 5-HT4(c); 4 μg of plasmid DNA, preincubation with 1 μM) was “antagonized”, the “effect of PTX treatment on the ML10375-induced reduction in basal cAMP” value (receptor 5-HT4(c); 6 μg of plasmid DNA, ML10375 1 μM, PTX 100 ng/ml, 16-hour preincubation) was “did not significantly modify” and the “decrease in the basal cAMP level in the presence of 1 μM 5-HT” value (receptor 5-HT4(c); 8 μg of plasmid DNA, preincubation with 1 μM) was 47%. The “reduction of the basal cAMP levels” value (receptor 5-HT4(c); COS-7, 1 μM, no agonist) was 21%, the “decrease of the basal cAMP values” (receptor 5-HT4(c); COS-7 transfected with 4 μg of plasmid DNA) was 24% and the “decrease of the basal cAMP values” (receptor 5-HT4(c); COS-7 transfected with 8 μg of plasmid DNA) was 62%. For the same compound, the “effect on the basal cAMP levels” value (receptor 5-HT4(a)) was “no significant effect”, the “effect on the basal cAMP levels” value (receptor 5-HT4(b)) was “no significant effect” and the “effect on basal adenylate cyclase activity / basal cAMP levels” value [1] was “no significant effect”. For the same compound, the “reduction of the basal cAMP levels” value (receptor 5-HT4(d)) was 24%.
